The values below come from US6083481A, “Thrombus imaging agents” (Diatide, Inc., priority 1998, dated 2000).

pIC50: −log10 of the molar value.

This experiment concerns human platelets in platelet-rich plasma. The experiment can be described thus: Platelet aggregation inhibition assay (ADP-induced, platelet-rich plasma). Type of experiment: cell-based. Conditions: fresh human platelet-rich plasma, aggregation induced by ADP 10 to 15 micromolar; read-out: IC50 (concentration of reagent that inhibits by 50% the aggregation of human platelets). Here is the method: Platelet aggregation studies were performed essentially as described by Zucker (1989, Methods in Enzymol. 169: 117-133). Briefly, platelet aggregation was assayed with or without putative platelet aggregation inhibitory compounds using fresh human platelet-rich plasma comprising 300,000 platelets per microlitre. Platelet aggregation was induced by the addition of a solution of adenosine diphosphate to a final concentration of 10 to 15 micromolar, and the extent of platelet aggregation monitored using a Bio/Data aggregometer (Bio/Data Corp., Horsham. Pa.). The concentrations of platelet aggregation inhibitory compounds used were varied from 0.1 to 500 μg/mL. The concentration of inhibitor that reduced the extent of platelet aggregation by 50% (defined as the IC50) was determined from plots of inhibitor concentration versus extent of platelet aggregation. An inhibition curve for peptide RGDS was determined for each batch of platelets tested as a positive control.
*concentration of reagent that inhibits by 50% the aggregation of human
platelets in plateletrich plasma induced to aggregate by the addition of
adenosine diphosphate (ADP).

Consider GRDGVRGDFCAcm GCAcm amide [Peptide P98], for which the pIC50 was 4.82.
